Measured values reported in PubChem BioAssay (NCI).
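96-well plates; 48 h exposure; 5 concentrations. Endpoints by linear interpolation between flanking doses. Not reached: highest tested concentration assigned. At the TGI there is no net growth.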

Tests used:
Experiment in all cases: DTP human tumour cell line panel, 48 h
[1] = test system: 786-0 renal
[2] = test system: A498 renal
[3] = test system: A549 NSCLC
[4] = test system: BT-549 breast
[5] = test system: CAKI-1 renal
[6] = test system: COLO 205 colon
[7] = test system: DU-145 prostate
[8] = test system: EKVX NSCLC
[9] = test system: HCC-2998 colon
[10] = test system: HCT-116 colon
[11] = test system: HL-60(TB) leukemia
[12] = test system: HOP-62 NSCLC
[13] = test system: HOP-92 NSCLC
[14] = test system: HS 578T breast
[15] = test system: HT29 colon
[16] = test system: IGROV1 ovarian
[17] = test system: K-562 leukemia
[18] = test system: KM12 colon
[19] = test system: LOX IMVI melanoma
[20] = test system: M14 melanoma
[21] = test system: MALME-3M melanoma
[22] = test system: MCF7 breast
[23] = test system: MDA-MB-231 breast
[24] = test system: MDA-MB-435
[25] = test system: MDA-N
[26] = test system: MOLT-4 leukemia
[27] = test system: NCI-H226 lung
[28] = test system: NCI-H23 lung
[29] = test system: NCI-H522 lung
[30] = test system: NCI/ADR-RES ovarian
[31] = test system: OVCAR-3 ovarian
[32] = test system: OVCAR-5 ovarian
[33] = test system: OVCAR-8 ovarian
[34] = test system: PC-3 prostate
[35] = test system: RPMI-8226 leukemia
[36] = test system: RXF 393 renal
[37] = test system: SF-268 CNS
[38] = test system: SF-295 CNS
[39] = test system: SK-MEL-2 melanoma
[40] = test system: SK-MEL-28 melanoma
[41] = test system: SK-MEL-5 melanoma
[42] = test system: SK-OV-3 ovarian
[43] = test system: SN12C renal
[44] = test system: SNB-75 CNS
[45] = test system: SW-620 colon
[46] = test system: T-47D breast
[47] = test system: TK-10 renal
[48] = test system: U251 CNS
[49] = test system: UACC-257 melanoma
[50] = test system: UACC-62 melanoma
[51] = test system: UO-31 renal
[52] = test system: ACHN renal
[53] = test system: CCRF-CEM leukemia
[54] = test system: HCT-15 colon
[55] = test system: NCI-H460 lung
[56] = test system: OVCAR-4 ovarian
[57] = test system: SF-539 CNS
[58] = test system: SNB-19 CNS
[59] = test system: SR leukemia

In the case of O=[N+]([O-])c1cccc(-c2ncnc(-c3cccc([N+](=O)[O-])c3)n2)c1, the TGI [1] is reported as > 100 µM, the TGI [2] is reported as > 100 µM and the TGI [3] is reported as > 100 µM. For the same compound, the TGI [4] was > 100 µM, the TGI [5] was 93.3 µM and the TGI [6] was > 100 µM. For the same compound, the TGI [7] was > 100 µM, the TGI [8] was > 100 µM and the TGI [9] was > 100 µM. For the same compound, the TGI [10] was > 100 µM, the TGI [11] was > 100 µM and the TGI [12] was 37.5 µM. For the same compound, the TGI [13] was 57.2 µM, the TGI [14] was > 100 µM and the TGI [15] was > 100 µM. For the same compound, the TGI [16] was > 100 µM, the TGI [17] was > 100 µM and the TGI [18] was > 100 µM. The TGI [19] was > 100 µM, the TGI [20] was > 100 µM and the TGI [21] was > 100 µM. The TGI [22] was > 100 µM, the TGI [23] was 98.2 µM and the TGI [24] was > 100 µM. The TGI [25] was > 100 µM, the TGI [26] was > 100 µM and the TGI [27] was > 100 µM. For the same compound, the TGI [28] was > 100 µM, the TGI [29] was > 100 µM and the TGI [30] was > 100 µM. For the same compound, the TGI [31] was > 100 µM, the TGI [32] was > 100 µM and the TGI [33] was > 100 µM. For the same compound, the TGI [34] was > 100 µM, the TGI [35] was > 100 µM and the TGI [36] was 62.8 µM. The TGI [37] was > 100 µM, the TGI [38] was > 100 µM and the TGI [39] was > 100 µM. The TGI [40] was > 100 µM, the TGI [41] was > 100 µM and the TGI [42] was > 100 µM. For the same compound, the TGI [43] was > 100 µM, the TGI [44] was > 100 µM and the TGI [45] was > 100 µM. For the same compound, the TGI [46] was > 100 µM, the TGI [47] was > 100 µM and the TGI [48] was 59.6 µM. The TGI [49] was > 100 µM, the TGI [50] was 95.2 µM and the TGI [51] was > 100 µM.

Work on CN(CCNC(=O)c1nn(-c2ccccc2)c2c1ccc1ccccc12)CCNC(=O)c1nn(-c2ccccc2)c2c1ccc1ccccc12 yielded a TGI [1] of 3.04 µM, a TGI [2] of 5.29 µM and a TGI [3] of 10.6 µM. For the same compound, the TGI [52] was 5.51 µM, the TGI [4] was 21.8 µM and the TGI [5] was 15.6 µM. It also gave a TGI [53] of 9.92 µM, a TGI [6] of 2.99 µM and a TGI [7] of 70.2 µM. It also gave a TGI [8] of 4.41 µM, a TGI [9] of 2.92 µM and a TGI [10] of 2.87 µM. It also gave a TGI [54] of 3.39 µM, a TGI [11] of 3.94 µM and a TGI [12] of 3.38 µM. It also gave a TGI [13] of 3.79 µM, a TGI [14] of 4.22 µM and a TGI [15] of 15.8 µM. For the same compound, the TGI [16] was 5.27 µM, the TGI [18] was 6.22 µM and the TGI [19] was 3.18 µM. It also gave a TGI [20] of 3.85 µM, a TGI [21] of 3.84 µM and a TGI [22] of 3.91 µM. The TGI [23] was 2.74 µM, the TGI [24] was 4 µM and the TGI [25] was 3.19 µM. The TGI [26] was 1.72 µM, the TGI [27] was 7.7 µM and the TGI [28] was 6.78 µM. For the same compound, the TGI [55] was 2.99 µM, the TGI [29] was 3.6 µM and the TGI [30] was 9.15 µM. It also gave a TGI [31] of 4.16 µM, a TGI [56] of 22.1 µM and a TGI [32] of 40.5 µM. The TGI [33] was 3.29 µM, the TGI [34] was 7.08 µM and the TGI [35] was 1.8 µM. The TGI [36] was 3.34 µM, the TGI [37] was 4.6 µM and the TGI [38] was 3.21 µM. It also gave a TGI [57] of 3.07 µM, a TGI [39] of 3.5 µM and a TGI [40] of 3.23 µM. It also gave a TGI [41] of 3.1 µM, a TGI [42] of 7.28 µM and a TGI [43] of 3.46 µM. The TGI [58] was 8.11 µM, the TGI [44] was 5.55 µM and the TGI [45] was 4.46 µM. For the same compound, the TGI [46] was 6.95 µM, the TGI [47] was 3.37 µM and the TGI [48] was 3.05 µM. For the same compound, the TGI [49] was 3.22 µM, the TGI [50] was 3.37 µM and the TGI [51] was 3.78 µM.

In the case of COc1ccc(OC)c(NC(=O)c2c(Cl)c(Cl)c(Cl)c(Cl)c2-c2nc3ccccc3[nH]2)c1, the TGI [1] is reported as > 100 µM, the TGI [2] is reported as > 100 µM and the TGI [3] is reported as > 100 µM. The TGI [52] was > 100 µM, the TGI [4] was > 100 µM and the TGI [5] was > 100 µM. For the same compound, the TGI [53] was > 100 µM, the TGI [6] was > 100 µM and the TGI [7] was > 100 µM. The TGI [8] was > 100 µM, the TGI [9] was > 100 µM and the TGI [10] was > 100 µM. For the same compound, the TGI [54] was > 100 µM, the TGI [11] was > 100 µM and the TGI [12] was > 100 µM. The TGI [13] was > 100 µM, the TGI [14] was > 100 µM and the TGI [15] was > 100 µM. The TGI [16] was > 100 µM, the TGI [17] was > 100 µM and the TGI [18] was > 100 µM. For the same compound, the TGI [19] was > 100 µM, the TGI [20] was > 100 µM and the TGI [21] was > 100 µM. For the same compound, the TGI [22] was > 100 µM, the TGI [24] was > 100 µM and the TGI [25] was > 100 µM. For the same compound, the TGI [26] was > 100 µM, the TGI [27] was > 100 µM and the TGI [28] was > 100 µM. The TGI [55] was > 100 µM, the TGI [29] was > 100 µM and the TGI [30] was > 100 µM. For the same compound, the TGI [31] was > 100 µM, the TGI [56] was > 100 µM and the TGI [32] was > 100 µM. The TGI [33] was > 100 µM, the TGI [34] was > 100 µM and the TGI [35] was > 100 µM. The TGI [36] was > 100 µM, the TGI [37] was > 100 µM and the TGI [38] was > 100 µM. For the same compound, the TGI [57] was > 100 µM, the TGI [40] was > 100 µM and the TGI [41] was > 100 µM. For the same compound, the TGI [42] was > 100 µM, the TGI [43] was > 100 µM and the TGI [58] was > 100 µM. The TGI [44] was > 100 µM, the TGI [59] was > 100 µM and the TGI [45] was > 100 µM. The TGI [46] was > 100 µM, the TGI [49] was > 100 µM and the TGI [50] was > 100 µM. For the same compound, the TGI [51] was > 100 µM.
